Target: Human DPP-IV (Homo sapiens, UniProt P27487)
Assay: DPP-IV Assay (protease inhibition, AP-AFC substrate)
Format: biochemical
Experimental: Solutions of test compounds in varying concentrations (≦10 mM final concentration) were prepared in Dimethyl Sulfoxide (DMSO) and then diluted into assay buffer comprising: 20 mM Tris, pH 7.4; 20 mM KCl; and 0.1 mg/mL BSA. Human DPP-IV (0.1 nM final concentration) was added to the dilutions and pre-incubated for 10 minutes at ambient temperature before the reaction was initiated with A-P-7-amido-4-trifluoromethylcoumarin (AP-AFC; 10 μM final concentration). The total volume of the reaction mixture was 10-100 μL depending on assay formats used (384 or 96 well plates). The reaction was followed kinetically (excitation λ=400 nm; emission λ=505 nm) for 5-10 minutes or an end-point was measured after 10 minutes. Inhibition constants (IC50) were calculated from the enzyme progress curves using standard mathematical models.

Human DPP-IV, sequence (P27487 whole entry): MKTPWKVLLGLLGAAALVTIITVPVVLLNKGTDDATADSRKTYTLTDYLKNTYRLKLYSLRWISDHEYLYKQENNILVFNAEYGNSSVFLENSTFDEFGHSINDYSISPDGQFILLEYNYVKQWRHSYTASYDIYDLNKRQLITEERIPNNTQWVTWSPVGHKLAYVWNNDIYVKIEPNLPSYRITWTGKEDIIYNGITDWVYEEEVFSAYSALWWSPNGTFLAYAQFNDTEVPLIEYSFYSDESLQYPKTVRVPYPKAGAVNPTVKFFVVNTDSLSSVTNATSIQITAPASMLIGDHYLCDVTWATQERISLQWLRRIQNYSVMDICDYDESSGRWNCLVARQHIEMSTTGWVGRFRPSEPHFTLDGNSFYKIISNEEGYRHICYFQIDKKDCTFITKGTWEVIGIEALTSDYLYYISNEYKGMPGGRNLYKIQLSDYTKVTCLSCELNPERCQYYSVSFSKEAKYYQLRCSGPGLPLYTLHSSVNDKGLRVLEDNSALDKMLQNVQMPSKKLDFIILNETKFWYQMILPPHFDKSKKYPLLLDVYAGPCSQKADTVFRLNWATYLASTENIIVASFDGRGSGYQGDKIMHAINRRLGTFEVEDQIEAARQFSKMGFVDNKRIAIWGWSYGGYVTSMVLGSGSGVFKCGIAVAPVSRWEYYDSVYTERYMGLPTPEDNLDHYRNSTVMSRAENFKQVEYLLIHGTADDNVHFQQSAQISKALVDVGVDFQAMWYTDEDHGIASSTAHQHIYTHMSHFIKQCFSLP

In the case of `COc1ccccc1-c1ccc2[nH]c(=O)c(=O)[nH]c2c1CN` [Example 1, 5-Aminomethyl-6-(2-methoxy-phenyl)-1,4-dihydro-quinoxaline-2,3-dione], the IC50 (DPP-IV inhibition, Human DPP-IV 0.1 nM, AP-AFC 10 μM) is reported as < 50 µM and the “selectivity in protease inhibition assays” value (tested in DPP-IV, FAPα, PREP and Tryptase assays) is reported as “selective DPP-IV inhibitory activity”.

From patent publication US7960384B2, “Dipeptidyl peptidase inhibitors” (Takeda Pharmaceutical Company Limited, priority 2006, dated 2011)
